From patent US9221826B2, “Pyrrolopyridazine JAK3 inhibitors and their use for the treatment of inflammatory and autoimmune diseases” (Bristol-Myers Squibb Company, priority 2011, dated 2015)

How the values were obtained:
Format in all cases: biochemical
JAK3 enzyme = target: T1, JAK3 enzyme (Homo sapiens, UniProt P52333); experiment: JAK3 Kinase Assay Protocol (Filter); conditions: 33P γ-ATP, 8 μM ATP, CSKtide substrate, read-out: LLE_JAK3_FB (IC50)
T1 sequence (P52333 1-1124): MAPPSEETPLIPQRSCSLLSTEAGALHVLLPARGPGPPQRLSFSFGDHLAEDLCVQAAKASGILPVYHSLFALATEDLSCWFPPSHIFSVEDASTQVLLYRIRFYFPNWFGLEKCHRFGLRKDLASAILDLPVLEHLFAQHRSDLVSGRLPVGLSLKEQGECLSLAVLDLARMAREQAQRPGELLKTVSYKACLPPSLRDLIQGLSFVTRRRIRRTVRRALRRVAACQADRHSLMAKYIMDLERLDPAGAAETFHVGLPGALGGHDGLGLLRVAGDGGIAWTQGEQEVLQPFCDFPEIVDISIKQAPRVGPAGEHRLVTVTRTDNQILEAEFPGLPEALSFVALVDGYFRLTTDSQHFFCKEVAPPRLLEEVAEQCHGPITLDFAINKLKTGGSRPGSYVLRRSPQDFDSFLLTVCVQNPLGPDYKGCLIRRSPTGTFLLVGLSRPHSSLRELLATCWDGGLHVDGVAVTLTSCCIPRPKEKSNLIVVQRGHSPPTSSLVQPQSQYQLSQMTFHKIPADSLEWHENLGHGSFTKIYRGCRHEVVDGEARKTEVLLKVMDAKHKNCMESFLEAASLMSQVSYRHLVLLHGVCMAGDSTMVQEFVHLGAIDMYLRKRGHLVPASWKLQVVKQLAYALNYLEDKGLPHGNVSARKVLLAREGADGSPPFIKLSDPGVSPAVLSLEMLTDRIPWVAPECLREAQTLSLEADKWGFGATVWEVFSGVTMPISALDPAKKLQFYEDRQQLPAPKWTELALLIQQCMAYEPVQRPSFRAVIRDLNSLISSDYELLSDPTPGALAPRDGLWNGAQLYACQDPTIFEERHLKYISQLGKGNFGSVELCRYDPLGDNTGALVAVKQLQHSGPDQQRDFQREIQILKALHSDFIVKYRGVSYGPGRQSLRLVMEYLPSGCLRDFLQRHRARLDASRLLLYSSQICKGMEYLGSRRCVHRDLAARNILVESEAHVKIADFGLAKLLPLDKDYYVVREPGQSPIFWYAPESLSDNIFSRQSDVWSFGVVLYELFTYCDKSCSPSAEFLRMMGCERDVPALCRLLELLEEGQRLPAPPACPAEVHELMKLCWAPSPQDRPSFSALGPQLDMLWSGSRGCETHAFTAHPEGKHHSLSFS
Description: Kinase reactions consisted of 5 ng of JAK3 enzyme, 30 uM CSKtide substrate, 0.2 μCi ^33P γ-ATP, 8 μM ATP in 30 μl kinase buffer (50 mM Hepes, pH 8.0, 10 mM MgCl2, 1 mM EGTA, 2 mM DTT). Reactions were incubated for 30 minutes at room temperature and stopped by the addition of cold trichloroacetic acid (TCA) to a final concentration of 15%. TCA precipitates were collected onto 384 well phosphocellulose filters (Millipore) using a Platemate to transfer the reaction mixture, washed on an EMBLA plate washer and the filters were quantitated using a TopCount 384-well liquid scintillation counter. […] Compounds were dissolved at 10 mM in dimethylsulfoxide (DMSO) and evaluated at six concentrations, each in triplicate. The final concentration of DMSO in the assay equaled 2%. IC50 values were derived by non-linear regression analysis.

GST-JAK3 enzyme = target: T2, GST-JAK3 enzyme (Homo sapiens, UniProt P52333); experiment: JAK3 Kinase Assay Protocol (Caliper); conditions: Caliper LabChip assay, ATP 8 μM, fluoresceinated peptide; read-out: LLE_JAK3_CAL (IC50)
T2 sequence (P52333 1-1124): T1 sequence (P52333 1-1124)
Description: The assay reactions were performed in U-bottom 384-well plates. […] The reaction was initiated by the combination of GST-JAK3 enzyme with substrates and test compounds. The reactions were incubated at room temperature for 3 hours and terminated by adding 60 μl of 35 mM EDTA to each sample. Each reaction mixture was analyzed on the Caliper LabChip 3000 (Caliper, Hopkinton, Mass.) by electrophoretic separation of the fluorescent substrate and phosphorylated product. […] Compounds were dissolved at 10 mM in dimethylsulfoxide (DMSO) and evaluated at eleven concentrations. IC50 values were derived by non-linear regression analysis.

GST-JAK1 enzyme = GST-JAK1 enzyme (Homo sapiens, UniProt P23458); experiment: JAK1 Kinase Assay Protocol; conditions: Caliper LabChip assay, ATP 100 μM, fluoresceinated peptide; read-out: LLE_JAK1 (IC50)
Description: The assay reactions were performed in U-bottom 384-well plates. The final assay volume was 30 μl prepared from 15 μl additions of enzyme and substrates (fluoresceinated peptide and ATP) and test compounds in assay buffer (20 mM HEPES pH 7.4, 10 mM MgCl2, 25 mM beta-glycerol phosphate, 0.015% Brij35 and 4 mM DTT). The reaction was initiated by the combination of GST-JAK1 enzyme with substrates and test compounds. The reactions were incubated at room temperature for 3 hours and terminated by adding 60 μl of 35 mM EDTA to each sample. Each reaction mixture was analyzed on the Caliper LabChip 3000 (Caliper, Hopkinton, Mass.) by electrophoretic separation of the fluorescent substrate and phosphorylated product. […] The final concentration of reagents in the assays was: ATP, 100 μM; fluoresceinated peptide, 1.5 μM; GST-JAK1, 12.5 nM; and DMSO, 1.6%. […] Compounds were dissolved at 10 mM in dimethylsulfoxide (DMSO) and evaluated at eleven concentrations. IC50 values were derived by non-linear regression analysis.

Chain of GST-JAK1 enzyme (P23458 whole entry): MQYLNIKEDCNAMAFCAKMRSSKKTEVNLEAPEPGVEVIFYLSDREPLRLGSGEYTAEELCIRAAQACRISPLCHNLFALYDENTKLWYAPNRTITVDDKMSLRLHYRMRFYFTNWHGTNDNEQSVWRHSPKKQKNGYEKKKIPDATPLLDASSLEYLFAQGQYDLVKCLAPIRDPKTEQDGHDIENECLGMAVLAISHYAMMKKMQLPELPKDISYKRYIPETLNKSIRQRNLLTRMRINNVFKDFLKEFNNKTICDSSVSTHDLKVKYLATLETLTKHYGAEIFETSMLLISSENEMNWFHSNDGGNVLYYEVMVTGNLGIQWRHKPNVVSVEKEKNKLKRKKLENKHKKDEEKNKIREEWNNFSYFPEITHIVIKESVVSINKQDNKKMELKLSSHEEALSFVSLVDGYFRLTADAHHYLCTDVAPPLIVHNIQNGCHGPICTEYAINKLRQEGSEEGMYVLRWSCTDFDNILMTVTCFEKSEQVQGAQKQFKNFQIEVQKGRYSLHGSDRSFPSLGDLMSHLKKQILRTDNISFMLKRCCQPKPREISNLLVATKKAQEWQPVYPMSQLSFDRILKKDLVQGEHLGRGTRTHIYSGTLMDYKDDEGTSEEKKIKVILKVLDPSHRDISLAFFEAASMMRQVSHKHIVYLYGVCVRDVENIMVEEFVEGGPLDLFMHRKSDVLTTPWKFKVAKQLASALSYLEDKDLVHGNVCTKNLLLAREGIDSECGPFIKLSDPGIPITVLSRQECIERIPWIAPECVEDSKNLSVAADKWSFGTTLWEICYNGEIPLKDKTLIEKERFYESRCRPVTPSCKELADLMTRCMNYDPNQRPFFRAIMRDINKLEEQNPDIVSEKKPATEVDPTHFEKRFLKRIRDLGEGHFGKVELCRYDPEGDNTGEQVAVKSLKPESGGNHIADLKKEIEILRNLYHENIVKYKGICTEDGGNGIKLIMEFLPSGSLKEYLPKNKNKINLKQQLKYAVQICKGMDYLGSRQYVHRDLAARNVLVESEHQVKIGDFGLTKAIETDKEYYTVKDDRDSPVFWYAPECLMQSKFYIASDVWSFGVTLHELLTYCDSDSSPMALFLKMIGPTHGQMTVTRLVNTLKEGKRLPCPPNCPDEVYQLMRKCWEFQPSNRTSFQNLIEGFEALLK

IC50 (JAK3 enzyme)	IC50 (GST-JAK3 enzyme)	IC50 (GST-JAK1 enzyme)	Structure (SMILES)
19.1 nM	8.5 nM	21.5 nM	NC(=O)c1cnn2cc(-c3ccccc3)cc2c1NCC1(CO)CC1 [Example 189, 4-((1-(hydroxymethyl)cyclopropyl)methylamino)-6-phenylpyrrolo[1,2-b]pyridazine-3-carboxamide]
0.7 nM	1.8 nM	4 nM	C[C@@H](N)c1cccc(-c2cc3c(N[C@H](C)C(C)(C)F)c(C(N)=O)cnn3c2)c1 [Example 62]
0.2 nM	0.7 nM	7 nM	CCOC(=O)Nc1cc2c(N[C@H](C)C(C)(C)C)c(C(N)=O)cnn2c1 [Example 9]
0.9 nM	3.7 nM	43 nM	C[C@@H](Nc1c(C(N)=O)cnn2cc(N3CCCC3=O)cc12)C(C)(C)C [Example 2]
48.4 nM	24 nM	193 nM	C[C@@H](Nc1c(C(N)=O)cnn2cc(-n3ccccc3=O)cc12)C(C)(C)C [Example 5]
1.3 nM	1 nM	2.8 nM	C[C@@H](Nc1c(C(N)=O)cnn2cc(-c3ccccc3)cc12)C(C)(C)C(N)=O [Example 194, (R)-4-(4-amino-3,3-dimethyl-4-oxobutan-2-ylamino)-6-phenylpyrrolo[1,2-b]-pyridazine-3-carboxamide]
26 nM	23.4 nM	160 nM	CSc1nnc(-c2cc3c(N[C@H](C)C4CC4)c(C(N)=O)cnn3c2)o1 [Example 127, (R)-4-(1-cyclopropylethylamino)-6-(5-(methylthio)-1,3,4-oxadiazol-2-yl)pyrrolo[1,2-b]pyridazine-3-carboxamide]
11 nM	27.3 nM	37.3 nM	CCCNc1c(C(N)=O)cnn2cc(-c3ccccc3)cc12 [Example 183, 6-phenyl-4-(propylamino)pyrrolo[1,2-b]pyridazine-3-carboxamide]
8.7 nM	8 nM	40.1 nM	CC1CCN(c2cc3c(N[C@H](C)C(C)(C)F)c(C(N)=O)cnn3c2)C1=O (mixture of isomers) [Example 134]
13.5 nM	60.9 nM	1200 nM	COc1ccc(-c2cc3c(N[C@H](C)c4ccccc4F)c(C(N)=O)cnn3c2)cn1 [Example 180, 4-(((1R)-1-(2-fluorophenyl)ethyl)amino)-6-(6-methoxy-3-pyridinyl)pyrrolo[1,2-b]pyridazine-3-carboxamide]
0.5 nM	0.8 nM	3.6 nM	COc1ccc(-c2cc3c(N[C@H](C)C(O)C4CC4)c(C(N)=O)cnn3c2)cn1 (single isomer, unassigned; isomer a) [Example 210]
11 nM	8.4 nM	61.1 nM	C[C@@H](Nc1c(C(N)=O)cnn2cc(N3CCOCC3=O)cc12)C(C)(C)F [Example 129]
15.1 nM	11.1 nM	26.5 nM	CC(C)Nc1c(C(N)=O)cnn2cc(-c3ccc(C#N)cc3)cc12 [Example 146]
5.3 nM	8.4 nM	73.7 nM	CNc1nnc(-c2cc3c(N[C@H](C)C4CC4)c(C(N)=O)cnn3c2)o1 [Example 195, (R)-4-(1-cyclopropylethylamino)-6-(5-(methylamino)-1,3,4-oxadiazol-2-yl)pyrrolo[1,2-b]pyridazine-3-carboxamide]
35.1 nM	56.3 nM	149 nM	COc1cc(-c2cc3c(NC(C)C)c(C(N)=O)cnn3c2)c(F)cn1 [Example 154]
